For series [1] the following is noted: 3H-labelled, 100 μl/eye into vitreous body, moment method, 1 to 21 days, average of three samples.
The nature of series [2]: Intraocular kinetic tests by fluorophotometry after injection into the vitreous body. It counts as in vivo, white rabbits. As to conditions: for half-life: rabbit, other: injection into the vitreous body (intravitreal). Here is the method:
Intraocular kinetic tests were conducted by the following methods using the delivering substances A and B containing a fluorescence.
The same procedure as mentioned above was repeated except that fluorescein sodium was used instead of the delivering substances A and B to prepare a 10 μg/ml injection containing fluorescein sodium for comparison.
1) A mixed solution containing an aqueous ketamine hydrochloride solution (50 mg/ml) and an aqueous xylazine hydrochloride (50 mg/ml) in a ratio of 7:3 was administered intramuscularly to white rabbits to anesthetize.
2) A tropicamide (0.5%)/phenylephrine hydrochloride (0.5%) ophthalmic solution was instilled into both eyes to cause mydriasis in the both eyes.
3) The both eyes were anesthetized with an oxybuprocaine hydrochloride (0.5%) ophthalmic solution.
4) Each of the above-mentioned injection was administered to the center of a vitreous body from an ocular pars plana with a syringe equipped with a 30G needle.
5) Intraocular fluorescence intensity was measured with a fluorophotometry apparatus after the administration to the vitreous body at 1, 4, 7, 15, 35 and 56 days. A calibration curves were prepared, changes in concentration in the vitreous body and a retina were determined, and respective half-lives were calculated. The above-mentioned operations 1) and 2) were carried out before the intraocular fluorescence intensity was measured, too.
The numerical values in Tables 1 and 2 are the average of three samples respectively.

Structures are written as SMILES. Where a name gives a salt, the structure may show the parent alone. Read-outs that look alike come from different tables or passages of the source. Some results are limits rather than exact numbers.

Regarding `C[C@]12N[C@H](Cc3ccccc31)c1ccccc12` [Comparative substance X, [5R,10S]-(+)-5-methyl-10,11-dihydro-5H-dibenzo[a,d]cycloheptene-5,10-imine maleate], the “Half-life (days) in the retina” value in series [1] (retina) is listed as 0.6 days. In addition, the “Half-life (days) in the vitreous body” value in series [1] (vitreous body) worked out at 0.5 days.
In general, half-life refers to the time needed for the level to fall by half in the phase considered. Turning to `O=C1OC2(c3ccc(O)cc3Oc3cc(O)ccc32)c2ccccc21` [Fluorescein sodium, fluorescein sodium], the half-life was < 0.1 days in series [2] (retina, restated in hours in the text, read-out: half-life in the retina); < 0.1 days in series [2] (white, 10 μg/ml, retina, injection into the vitreous body, moment method from data measured 1 to 56 days after injection, average of three samples, read-out: Half-life (days) in the retina); < 0.2 days in series [2] (white, vitreous body, injection into the vitreous body, moment method from data measured 1 to 35 days after injection, average of three samples, read-out: Half-life (days) in the vitreous body). Further, the “half-life in the vitreous body” value in series [2] (vitreous body, restated in hours in the text) is given as “less than five hours”.

For the origin of these results see patent US7455855B2, “Delivering substance and drug delivery system using the same” (Santen Pharmaceutical Co., Ltd., priority 2000, dated 2008).
